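The compound was tested at five concentrations on cells cultured in 96-well plates, with a 48-hour exposure period. Here, GI50 denotes the concentration required for 50% inhibition of growth.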 Calls of active or inactive are those of the source. Rule as the data show it: active = GI50 up to about 1.1 µM and inactive = higher. Peptide text beside a SMILES is read from it. * marks the point of attachment. Cbz = O=C(OCc1ccccc1)*; OBn = c1ccc(CO*)cc1
Tests used:
Assay in all cases: NCI tumour cell line growth inhibition, 48 h
[1] = system: OVCAR-3
[2] = system: NCI-H460
[3] = system: SNB-19
[4] = system: A498
[5] = system: SK-OV-3
[6] = system: CAKI-1
[7] = system: MDA-MB-231
[8] = system: SF-295
[9] = system: DU-145
[10] = system: UACC-257
[11] = system: BT-549
[12] = system: NCI/ADR-RES
[13] = system: CCRF-CEM
[14] = system: SN12C
[15] = system: SR
[16] = system: HCT-15
[17] = system: COLO 205
[18] = system: SK-MEL-5
[19] = system: HCC 2998

Structure (SMILES)	GI50 [1]	GI50 [2]	GI50 [3]	GI50 [4]	GI50 [5]	GI50 [6]	GI50 [7]	GI50 [8]	GI50 [9]	GI50 [10]	GI50 [11]	GI50 [12]	GI50 [13]	GI50 [14]	GI50 [15]	GI50 [16] [µM]	GI50 [17]	GI50 [18]	GI50 [19]
Cc1cc(C)c2c(SCc3ccc(Cl)cc3Cl)nc(N)nc2n1	20.6 µM (inactive)	21.7 µM (inactive)	58.9 µM (inactive)	> 100 µM (inactive)	> 100 µM (inactive)	> 100 µM (inactive)	> 100 µM (inactive)	> 100 µM (inactive)	> 100 µM (inactive)	4.6 µM (inactive)	> 100 µM (inactive)	> 100 µM (inactive)	> 100 µM (inactive)	21.2 µM (inactive)	33 µM (inactive)	> 100	34.8 µM (inactive)	> 100 µM (inactive)	–
Cc1cc(C(=O)CCCCOc2ccc(C3=NCCO3)cc2)c(C)n1C	38.8 µM (inactive)	–	25.1 µM (inactive)	34.6 µM (inactive)	49.7 µM (inactive)	37.2 µM (inactive)	> 100 µM (inactive)	34.4 µM (inactive)	24.3 µM (inactive)	3.98 µM (inactive)	33.3 µM (inactive)	26.7 µM (inactive)	20.6 µM (inactive)	56.5 µM (inactive)	29.4 µM (inactive)	38.6	52.4 µM (inactive)	15.7 µM (inactive)	–
O=C(O)c1ccc2c(c1C(=O)O)C(=O)OC2(c1ccc(O)cc1)c1ccc(O)cc1	> 100 µM (inactive)	> 100 µM (inactive)	> 100 µM (inactive)	> 100 µM (inactive)	> 100 µM (inactive)	> 100 µM (inactive)	> 100 µM (inactive)	> 100 µM (inactive)	> 100 µM (inactive)	> 100 µM (inactive)	> 100 µM (inactive)	> 100 µM (inactive)	> 100 µM (inactive)	> 100 µM (inactive)	> 100 µM (inactive)	> 100	> 100 µM (inactive)	> 100 µM (inactive)	–
N#CCC(=O)c1cc(OCc2cc(OCc3ccc(Br)cc3)cc(OCc3ccc(Br)cc3)c2)cc(OCc2cc(OCc3ccc(Br)cc3)cc(OCc3ccc(Br)cc3)c2)c1	> 100 µM (inactive)	> 100 µM (inactive)	> 100 µM (inactive)	> 100 µM (inactive)	> 100 µM (inactive)	> 100 µM (inactive)	> 100 µM (inactive)	> 100 µM (inactive)	> 100 µM (inactive)	> 100 µM (inactive)	> 100 µM (inactive)	> 100 µM (inactive)	–	> 100 µM (inactive)	–	> 100	> 100 µM (inactive)	> 100 µM (inactive)	> 100 µM (inactive)
CCOC(=O)C12C3CCC1C2C(=O)C3 (stereo not given)	> 100 µM (inactive)	> 100 µM (inactive)	> 100 µM (inactive)	–	> 100 µM (inactive)	> 100 µM (inactive)	> 100 µM (inactive)	> 100 µM (inactive)	> 100 µM (inactive)	> 100 µM (inactive)	> 100 µM (inactive)	> 100 µM (inactive)	> 100 µM (inactive)	> 100 µM (inactive)	> 100 µM (inactive)	> 100	> 100 µM (inactive)	> 100 µM (inactive)	> 100 µM (inactive)
COc1ccc(OC)c2cc(Cc3ccc(N(C)C)cc3)c(=O)c(Cc3ccc(N(C)C)cc3)cc12	> 100 µM (inactive)	55.6 µM (inactive)	75.5 µM (inactive)	26.4 µM (inactive)	> 100 µM (inactive)	61 µM (inactive)	74.5 µM (inactive)	> 100 µM (inactive)	> 100 µM (inactive)	> 100 µM (inactive)	> 100 µM (inactive)	30.2 µM (inactive)	> 100 µM (inactive)	> 100 µM (inactive)	–	> 100	> 100 µM (inactive)	63.7 µM (inactive)	> 100 µM (inactive)
COC(=O)/C=C1/CCC(C)(C(=O)NS(=O)(=O)c2ccc(C)cc2)C1(C)C (stereo not given)	> 100 µM (inactive)	> 100 µM (inactive)	> 100 µM (inactive)	> 100 µM (inactive)	> 100 µM (inactive)	> 100 µM (inactive)	> 100 µM (inactive)	> 100 µM (inactive)	> 100 µM (inactive)	> 100 µM (inactive)	> 100 µM (inactive)	> 100 µM (inactive)	> 100 µM (inactive)	> 100 µM (inactive)	–	> 100	> 100 µM (inactive)	> 100 µM (inactive)	> 100 µM (inactive)
CC(C(N)C(=O)NC(C(=O)O)C1OC(n2ccc(=O)[nH]c2=O)C(O)C1O)C(O)c1ccc(O)cn1 (stereo not given)	> 100 µM (inactive)	> 100 µM (inactive)	> 100 µM (inactive)	–	–	> 100 µM (inactive)	> 100 µM (inactive)	> 100 µM (inactive)	> 100 µM (inactive)	> 100 µM (inactive)	> 100 µM (inactive)	> 100 µM (inactive)	> 100 µM (inactive)	> 100 µM (inactive)	> 100 µM (inactive)	> 100	> 100 µM (inactive)	> 100 µM (inactive)	> 100 µM (inactive)
CC(=O)Oc1ccc2c(c1)[nH]c1c3ccc(OC(C)=O)cc3oc(=O)c21	24.8 µM (inactive)	22.6 µM (inactive)	23.9 µM (inactive)	–	26 µM (inactive)	52.4 µM (inactive)	29.2 µM (inactive)	44.1 µM (inactive)	33.3 µM (inactive)	43.2 µM (inactive)	23.9 µM (inactive)	> 100 µM (inactive)	19.3 µM (inactive)	30.5 µM (inactive)	22.8 µM (inactive)	37	30.7 µM (inactive)	15.3 µM (inactive)	26.5 µM (inactive)
Cc1cc2c(cc1Cl)SC(NN(C)C)=NS2(=O)=O	> 10 µM (inactive)	> 10 µM (inactive)	> 10 µM (inactive)	> 10 µM (inactive)	> 10 µM (inactive)	> 10 µM (inactive)	> 10 µM (inactive)	> 10 µM (inactive)	> 10 µM (inactive)	> 10 µM (inactive)	> 10 µM (inactive)	> 10 µM (inactive)	> 10 µM (inactive)	> 10 µM (inactive)	–	> 10	> 10 µM (inactive)	> 10 µM (inactive)	> 10 µM (inactive)
C[N+](C)(C)C(C1=CCCC1=O)c1ccccc1 (stereo not given)	47.1 µM (inactive)	28.4 µM (inactive)	> 100 µM (inactive)	> 100 µM (inactive)	> 100 µM (inactive)	24.5 µM (inactive)	29 µM (inactive)	> 100 µM (inactive)	57.5 µM (inactive)	22.8 µM (inactive)	37.2 µM (inactive)	33.8 µM (inactive)	12.5 µM (inactive)	20.3 µM (inactive)	15.3 µM (inactive)	20.2	> 100 µM (inactive)	> 100 µM (inactive)	–
N#Cc1ccccc1-c1nc2c3c(c(N)ccc3n1)C(=O)c1ccccc1-2	45.1 µM (inactive)	> 100 µM (inactive)	55.1 µM (inactive)	43.6 µM (inactive)	24.4 µM (inactive)	8.3 µM (inactive)	10.3 µM (inactive)	45.1 µM (inactive)	64.1 µM (inactive)	> 100 µM (inactive)	> 100 µM (inactive)	> 100 µM (inactive)	18.9 µM (inactive)	60 µM (inactive)	–	31.8	26.4 µM (inactive)	32.1 µM (inactive)	> 100 µM (inactive)
COC(=O)CC[C@@H](C)[C@H]1CC[C@H]2[C@@H]3CC[C@@H]4C[C@H](O)CC[C@]4(C)[C@H]3CC[C@]12C	18.1 µM (inactive)	19.3 µM (inactive)	21.6 µM (inactive)	20.5 µM (inactive)	20.8 µM (inactive)	17.9 µM (inactive)	17.8 µM (inactive)	18.2 µM (inactive)	17.7 µM (inactive)	14.8 µM (inactive)	16.2 µM (inactive)	19 µM (inactive)	18.2 µM (inactive)	18.6 µM (inactive)	14.9 µM (inactive)	17.1	19.5 µM (inactive)	16.9 µM (inactive)	–
CCCCCCCCCCCC[C@@H](O)[C@H]1CC[C@H]([C@H]2CC[C@H]([C@H](O)CC[C@H](O)CCCCCCCC3=C[C@H](C)OC3=O)O2)O1	1.58 µM (inactive)	1.08 µM (active)	1.23 µM (inactive)	2.52 µM (inactive)	–	2.67 µM (inactive)	2.62 µM (inactive)	1.26 µM (inactive)	3.38 µM (inactive)	0.136 µM (active)	0.00352 µM (active)	1.29 µM (inactive)	1.09 µM (active)	3.22 µM (inactive)	2.03 µM (inactive)	2.03	1.86 µM (inactive)	1.38 µM (inactive)	–
COC(=O)CNC(=O)C(C)NC(=O)C(CC(=O)OCc1ccccc1)NC(=O)OCc1ccccc1 (stereo not drawn) (Cbz-Asp(OBn)-Ala-Gly-OMe; configuration not given here)	75 µM (inactive)	50.7 µM (inactive)	57.3 µM (inactive)	–	> 100 µM (inactive)	79.8 µM (inactive)	6.64 µM (inactive)	33.3 µM (inactive)	93.5 µM (inactive)	32.4 µM (inactive)	37.8 µM (inactive)	67.1 µM (inactive)	–	91.6 µM (inactive)	35.5 µM (inactive)	53.7	38.4 µM (inactive)	17 µM (inactive)	32.9 µM (inactive)
